# Assay results reported in patent US9249129B2, “Morpholino substituted urea derivatives as mTOR inhibitors” (CELLZOME LIMITED, priority 2010, dated 2016).
# Read-outs that look alike come from different tables or passages of the source.
# What was measured:
# Format in all cases: binding
# [1] = target: T1, DNA-dependent protein kinase (DNA-PK) (Homo sapiens, UniProt P78527); experiment: kinobeads assay, DNA-PK (dot blot detection)
# T1 construct: endogenous in cells; host or cells: Jurkat cells (ATCC TIB-152, clone E6-1), lysate
# Description: (§1) The compounds of the present invention as described were tested in the mTOR kinobeads assay as described below. Briefly, test compounds (at various concentrations) and the affinity matrix (1:1 mixture of beads with immobilized phenylthiazole ligand 1 and beads with immobilized phenylmorpholin-chromen ligand; WO 2009/098021) were added to cell lysate aliquots and allowed to bind to the proteins in the lysate sample. After the incubation time the beads with captured proteins were separated from the lysate. Bound proteins were then eluted and the presence of mTOR, PI3K delta (PI3 Kd) and DNA-dependent protein kinase (DNA-PK) was detected and quantified using a specific antibody in a dot blot procedure and the Odyssey infrared detection system. Dose response curves for individual kinases were generated and IC50 values calculated. Kinobeads assays for PI3 kinases (WO-A 2008/015013) and for kinase selectivity profiling (WO 2009/098021) have been previously described.
# (§2) The affinity matrix (beads with immobilized phenylmorpholin-chromen ligand) was washed two times with 15 ml of 1×DP buffer containing 0.2% NP40 (IGEPAL® CA-630, Sigma, #13021) and then resupended in 5.5 ml of 1×DP buffer containing 0.2% NP40 (10% beads slurry).
# (§3) 5×DP buffer: 250 mM Tris-HCl pH 7.4, 25% Glycerol, 7.5 mM MgCl2, 750 mM NaCl, 5 mM Na3VO4, filter the 5×-lysis buffer through 0.22 μm filter and store in aliquots at −80° C. The 5×DP buffer is diluted to 1×DP buffer containing 1 mM DTT and 25 mM NaF.
# (§4) Stock solutions of test compounds were prepared in DMSO. In a 96 well plate 30 μl solution of diluted test compounds at 5 mM in DMSO were prepared. Starting with this solution a 1:3 dilution series (9 steps) was prepared. For control experiments (no test compound) a buffer containing 2% DMSO was used. Compound CZC00018052 served as a positive control (PI-103; Calbiochem catalogue number 528100).
# (§5) Jurkat cells (ATCC catalogue number TIB-152 Jurkat, clone E6-1) were grown in 1 litre Spinner flasks (Integra Biosciences, #182101) in suspension in RPMI 1640 medium (Invitrogen, #21875-034) supplemented with 10% Fetal Bovine Serum (Invitrogen) at a density between 0.15×10^6 and 1.2×10^6 cells/ml. Cells were harvested by centrifugation, washed once with 1×PBS buffer (Invitrogen, #14190-094) and cell pellets were frozen in liquid nitrogen and subsequently stored at −80° C.
# (§6) Jurkat cells were homogenized in a Potter S homogenizer in lysis buffer: 50 mM Tris-HCl, 0.8% NP40, 5% glycerol, 150 mM NaCl, 1.5 mM MgCl2, 25 mM NaF, 1 mM sodium vanadate, 1 mM DTT, pH 7.5. One complete EDTA-free tablet (protease inhibitor cocktail, Roche Diagnostics, 1873580) per 25 ml buffer was added. The material was dounced 10 times using a mechanized POTTER S, transferred to 50 ml falcon tubes, incubated for 30 minutes on ice and spun down for 10 min at 20,000 g at 4° C. (10,000 rpm in Sorvall SLA600, precooled). The supernatant was transferred to an ultracentrifuge (UZ)-polycarbonate tube (Beckmann, 355654) and spun for 1 hour at 100.000 g at 4° C. (33.500 rpm in Ti50.2, precooled). The supernatant was transferred again to a fresh 50 ml falcon tube, the protein concentration was determined by a Bradford assay (BioRad) and samples containing 50 mg of protein per aliquot were prepared. The samples were immediately used for experiments or frozen in liquid nitrogen and stored frozen at −80° C.
# (§7) Jurkat cell lysate (approximately 50 mg protein per plate) was thawed in a water bath at room temperature and then kept on ice. To the thawed cell lysate 1×DP 0.8% NP40 buffer containing protease inhibitors (1 tablet for 25 ml buffer; EDTA-free protease inhibitor cocktail; Roche Diagnostics 1873580) was added in order to reach a final protein concentration of 5 mg/ml total protein. The diluted cell lysate was stored on ice. […]
# PI3K delta (PI3Kd) = target: T2, PI3K delta (PI3Kd) (Homo sapiens, UniProt O00329); experiment: kinobeads assay, PI3K delta (dot blot detection)
# T2 construct: endogenous in cells; host or cells: Jurkat cells (ATCC TIB-152, clone E6-1), lysate
# Description: as §1, §2, §3, §4, §5, §6, §7
# mTOR = target: T3, mTOR (Homo sapiens, UniProt P42345); experiment: mTOR kinobeads assay (dot blot detection)
# T3 construct: endogenous in cells; host or cells: Jurkat cells (ATCC TIB-152, clone E6-1), lysate
# Description: as §1, §2, §3, §4, §5, §6, §7
# [2] = Table 2, Jurkat cell lysate, read-out: Inhibition values (IC50) DNAPK
# [3] = Table 4, read-out: Inhibition values (IC50) DNAPK
# [4] = Table 2, Jurkat cell lysate, read-out: Inhibition values (IC50) PI3Kd
# [5] = Table 4, read-out: Inhibition values (IC50) PI3Kd
# [6] = Table 2, Jurkat cell lysate, read-out: Inhibition values (IC50) mTor
# [7] = Table 4, read-out: Inhibition values (IC50) mTOR
# T2 sequence (O00329 whole entry): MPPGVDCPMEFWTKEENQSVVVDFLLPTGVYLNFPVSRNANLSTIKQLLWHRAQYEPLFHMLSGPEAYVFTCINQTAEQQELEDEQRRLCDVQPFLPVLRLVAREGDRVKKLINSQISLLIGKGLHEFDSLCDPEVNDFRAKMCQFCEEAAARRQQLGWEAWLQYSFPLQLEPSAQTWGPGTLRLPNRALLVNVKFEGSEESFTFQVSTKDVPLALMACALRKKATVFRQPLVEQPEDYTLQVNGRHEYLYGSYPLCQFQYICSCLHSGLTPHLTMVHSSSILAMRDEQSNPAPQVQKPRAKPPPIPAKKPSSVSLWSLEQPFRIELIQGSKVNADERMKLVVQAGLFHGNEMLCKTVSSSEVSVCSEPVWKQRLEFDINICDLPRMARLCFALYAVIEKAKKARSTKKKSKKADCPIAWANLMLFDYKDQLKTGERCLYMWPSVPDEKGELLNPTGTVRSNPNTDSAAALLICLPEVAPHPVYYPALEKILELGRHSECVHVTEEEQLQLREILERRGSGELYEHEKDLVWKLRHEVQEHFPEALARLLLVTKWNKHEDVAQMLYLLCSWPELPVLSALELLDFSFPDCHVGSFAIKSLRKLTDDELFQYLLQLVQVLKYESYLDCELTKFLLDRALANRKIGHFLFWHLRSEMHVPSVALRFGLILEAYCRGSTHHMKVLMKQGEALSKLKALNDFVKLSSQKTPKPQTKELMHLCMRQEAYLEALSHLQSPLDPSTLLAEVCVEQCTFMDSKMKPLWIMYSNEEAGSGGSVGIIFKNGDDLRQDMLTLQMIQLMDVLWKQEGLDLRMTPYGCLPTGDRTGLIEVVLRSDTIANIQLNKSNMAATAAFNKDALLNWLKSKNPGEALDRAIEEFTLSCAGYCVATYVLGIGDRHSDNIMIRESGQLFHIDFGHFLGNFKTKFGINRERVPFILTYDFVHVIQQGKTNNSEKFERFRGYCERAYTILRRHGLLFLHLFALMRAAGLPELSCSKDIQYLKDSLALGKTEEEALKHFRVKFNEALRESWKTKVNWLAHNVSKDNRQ
# T2 sequence (P27986 whole entry partner): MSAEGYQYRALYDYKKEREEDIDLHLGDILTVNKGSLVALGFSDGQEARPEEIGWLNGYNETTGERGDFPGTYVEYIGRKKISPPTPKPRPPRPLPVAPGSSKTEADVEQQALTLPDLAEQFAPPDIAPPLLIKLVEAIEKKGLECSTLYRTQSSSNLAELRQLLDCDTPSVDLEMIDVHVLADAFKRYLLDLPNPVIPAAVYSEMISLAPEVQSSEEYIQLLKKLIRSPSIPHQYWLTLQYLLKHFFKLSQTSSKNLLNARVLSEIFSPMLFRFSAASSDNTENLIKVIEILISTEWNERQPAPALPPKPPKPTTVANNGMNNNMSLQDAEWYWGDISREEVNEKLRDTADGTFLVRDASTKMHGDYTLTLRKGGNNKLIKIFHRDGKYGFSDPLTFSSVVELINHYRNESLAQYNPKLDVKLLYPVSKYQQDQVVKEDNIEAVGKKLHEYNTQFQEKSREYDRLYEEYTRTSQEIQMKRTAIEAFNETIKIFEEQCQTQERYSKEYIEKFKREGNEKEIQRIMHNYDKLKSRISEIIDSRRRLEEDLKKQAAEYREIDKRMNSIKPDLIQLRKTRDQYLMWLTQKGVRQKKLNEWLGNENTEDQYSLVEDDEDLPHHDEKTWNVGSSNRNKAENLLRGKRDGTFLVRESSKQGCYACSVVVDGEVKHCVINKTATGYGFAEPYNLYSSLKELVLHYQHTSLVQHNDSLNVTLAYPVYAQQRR
SMILES,"IC50 [1, 2]","IC50 [1, 3]",IC50 (PI3K delta (PI3Kd); [4]),IC50 (PI3K delta (PI3Kd); [5]),IC50 (mTOR; [6]),IC50 (mTOR; [7])
"CCNC(=O)Nc1ccc(-c2cc(-c3ccccc3NC(C)=O)nc(N3CCOC[C@@H]3C)n2)cc1 [Example 10, (S)—N-(2-(6-(4-(3-ethylureido)phenyl)-2-(3-methylmorpholino)pyrimidin-4-yl)phenyl)acetamide]",≥ 10 µM,≥ 10 µM,≥ 10 µM,≥ 10 µM,1 to 10 µM,1 to 10 µM
"CCNC(=O)Nc1ccc(-c2cc(-c3ccncc3)nc(N3CCOC[C@@H]3C)n2)cc1 [Example 13, (S)-1-ethyl-3-(4-(2-(3-methylmorpholino)-6-(pyridin-4-yl)pyrimidin-4-yl)phenyl)urea]",≥ 10 µM,≥ 10 µM,≥ 10 µM,≥ 10 µM,1 to 10 µM,1 to 10 µM
"CCNC(=O)Nc1ccc(-c2cc(-c3ccccc3C(N)=O)nc(N3CCOC[C@@H]3C)n2)cc1 [Example 12, (S)-2-(6-(4-(3-ethylureido)phenyl)-2-(3-methylmorpholino)pyrimidin-4-yl)benzamide]",≥ 10 µM,≥ 10 µM,≥ 10 µM,≥ 10 µM,1 to 10 µM,1 to 10 µM
"CCNC(=O)Nc1ccc(-c2cc(-c3ccccc3CO)nc(N3CCOC[C@@H]3C)n2)cc1 [Example 16, (S)-1-ethyl-3-(4-(6-(2-(hydroxymethyl)phenyl)-2-(3-methylmorpholino)pyrimidin-4-yl)phenyl)urea]",≥ 10 µM,≥ 10 µM,≥ 10 µM,≥ 10 µM,1 to 10 µM,1 to 10 µM
"C[C@H]1COCCN1c1cc(-c2cccc(S(C)(=O)=O)c2)nc(-c2ccc(NC(=O)NC3CC3)cc2)n1 [Example 5, (S)-1-cyclopropyl-3-(4-(4-(3-methylmorpholino)-6-(3-(methylsulfonyl)phenyl)pyrimidin-2-yl)phenyl)urea]",≥ 10 µM,≥ 10 µM,≥ 10 µM,≥ 10 µM,1 to 10 µM,1 to 10 µM
"CCNC(=O)Nc1ccc(-c2cc(-c3ccccc3C(=O)O)nc(N3CCOC[C@@H]3C)n2)cc1 [Example 11, (S)-2-(6-(4-(3-ethylureido)phenyl)-2-(3-methylmorpholino)pyrimidin-4-yl)benzoic acid]",≥ 10 µM,≥ 10 µM,≥ 10 µM,≥ 10 µM,1 to 10 µM,1 to 10 µM
"CCNC(=O)Nc1ccc(-c2cc(-c3ccccc3NS(C)(=O)=O)nc(N3CCOC[C@@H]3C)n2)cc1 [Example 9, (S)—N-(2-(6-(4-(3-ethylureido)phenyl)-2-(3-methylmorpholino)pyrimidin-4-yl)phenyl)methanesulfonamide]",≥ 10 µM,≥ 10 µM,≥ 10 µM,≥ 10 µM,1 to 10 µM,1 to 10 µM
"O=C(Nc1ccc(-c2cc(-c3cccnc3)nc(N3CCOCC3)n2)cc1)NC1CC1 [Example 1, 1-cyclopropyl-3-(4-(2-morpholino-6-(pyridin-3-yl)pyrimidin-4-yl)phenyl)urea]",≥ 10 µM,≥ 10 µM,≥ 10 µM,≥ 10 µM,1 to 10 µM,1 to 10 µM

# Further lines, results first:
"IC50 [1, 2]","IC50 [1, 3]",IC50 (PI3K delta (PI3Kd); [4]),IC50 (PI3K delta (PI3Kd); [5]),IC50 (mTOR; [6]),IC50 (mTOR; [7]),SMILES
1 to 10 µM,1 to 10 µM,≥ 10 µM,≥ 10 µM,1 to 10 µM,1 to 10 µM,"CCCNC(=O)Nc1ccc(-c2ccnc(N3CCOCC3)n2)cc1 [Example 31, 1-propyl-3-(4-(2-morpholinopyrimidin-4-yl)phenyl)urea]"
1 to 10 µM,1 to 10 µM,≥ 10 µM,≥ 10 µM,1 to 10 µM,1 to 10 µM,"CCNC(=O)Nc1ccc(-c2nccc(N3CCOCC3)n2)cc1 [Example 36, 1-ethyl-3-(4-(4-morpholinopyrimidin-2-yl)phenyl)urea]"
≥ 10 µM,≥ 10 µM,≥ 10 µM,≥ 10 µM,1 to 10 µM,1 to 10 µM,"CCNC(=O)Nc1ccc(-c2cc(-c3cc[nH]n3)nc(N3CCOC[C@@H]3C)n2)cc1 [Example 18, (S)-1-ethyl-3-(4-(2-(3-methylmorpholino)-6-(1H-pyrazol-3-yl)pyrimidin-4-yl)phenyl)urea]"
≥ 10 µM,≥ 10 µM,≥ 10 µM,≥ 10 µM,1 to 10 µM,1 to 10 µM,"CCNC(=O)Nc1ccc(-c2cc(-c3ccccc3S(=O)(=O)NC)nc(N3CCOCC3)n2)cc1 [Example 19, 2-(6-(4-(3-ethylureido)phenyl)-2-morpholinopyrimidin-4-yl)-N-methylbenzenesulfonamide]"
1 to 10 µM,1 to 10 µM,≥ 10 µM,≥ 10 µM,1 to 10 µM,1 to 10 µM,"CCCNC(=O)Nc1ccc(-c2nccc(N3CCOCC3)n2)cc1 [Example 32, 1-(4-(4-morpholinopyrimidin-2-yl)phenyl)-3-propylurea]"
1 to 10 µM,1 to 10 µM,1 to 10 µM,1 to 10 µM,1 to 10 µM,1 to 10 µM,"NC(=O)Nc1ccc(-c2nccc(N3CCOCC3)n2)cc1 [Example 33, 1-(4-(4-morpholinopyrimidin-2-yl)phenyl)urea]"
1 to 10 µM,1 to 10 µM,1 to 10 µM,1 to 10 µM,1 to 10 µM,1 to 10 µM,"CNC(=O)Nc1ccc(-c2nccc(N3CCOCC3)n2)cc1 [Example 27, 1-methyl-3-(4-(4-morpholinopyrimidin-2-yl)phenyl)urea]"
≥ 10 µM,≥ 10 µM,≥ 10 µM,≥ 10 µM,1 to 10 µM,1 to 10 µM,"CCNC(=O)Nc1ccc(-c2cc(-c3ccccc3S(C)(=O)=O)nc(N3CCOCC3)n2)cc1 [Example 20, 1-ethyl-3-(4-(6-(2-(methylsulfonyl)phenyl)-2-morpholinopyrimidin-4-yl)phenyl)urea]"
